In PMC8605905 (Oxidative Medicine and Cellular Longevity, 2021):

Experiments:
[1] = biological target: T1, Aβ42 peptide (Homo sapiens, UniProt P05067); assay: Thioflavin T assay of Aβ aggregation; assay type: biochemical; settings: Aβ42 5 μM, compound 5–20 μM, 37°C 48 h; read-out: Aβ aggregation inhibition EC50 (Thioflavin T)
T1 construct: containing Aβ42 peptide (5 μM); purchased AnaSpec; host or cells: synthetic
Procedure: In brief, the tested compound (5–20 μM) was added to a buffer solution (150 mM NaCl, 20 mM Tris-HCl (pH 8.0)) containing Aβ42 peptide (5 μM) and incubated at 37°C for 48 h. Thioflavin T (10 μM) (Sigma-Aldrich) then was added, and the mixture was incubated for 5 min at room temperature. Subsequently, the fluorescence intensity was quantified at 420/485 nm of excitation/emission wavelengths using a FLx800 microplate reader (Bio-Tek, Winooski, VT, USA). EC50 was computed as described.

[2] = biological target: T2, ΔK280 tauRD protein (Homo sapiens, UniProt P10636, DEL597-597); assay: Thioflavin T assay of ΔK280 tauRD aggregation; assay type: biochemical; settings: ΔK280 tauRD 20 μM, compound 1–10 μM, 37°C 48 h; read-out: ΔK280 tauRD aggregation inhibition EC50 (Thioflavin T)
T2 construct: E. coli-derived ΔK280 tauRD protein; made in house; host or cells: E. coli
Procedure: The potential of Congo red and coumarin-chalcone derivatives in inhibiting tau misfolding was assessed using the E. coli-derived ΔK280 tauRD protein [21]. In brief, ΔK280 tauRD protein (20 μM) was incubated with the tested compound (1−10 μM) in buffer (150 mM NaCl, 20 mM Tris-HCl (pH 8.0)) at 37°C for 48 h to form aggregates. Thioflavin T (5 μM) was then added, and the mixture was incubated at room temperature for 25 min. The fluorescence intensity of the samples was measured, and the EC50 was computed as described.

[3] = test system: Acetylcholinesterase (AChE); assay: AChE activity in Aβ-GFP cells; assay type: cell-based; settings: 5 μM, vs untreated cells
Procedure: Aβ-GFP or ∆K280 tauRD-DsRed SH-SY5Y cells were seeded into 6-well plates (5 × 10^5/well) and treated with retinoic acid, coumarin-chalcone derivatives, and doxycycline as previously described. On day 8, cells were collected and lysates were prepared with six freeze/thaw cycles. The supernatant was collected by centrifugation, followed by measurement of the caspase 1 activity in 50 μg aliquots of cell extract using the ICE fluorometric assay kit (BioVision, Milpitas, CA, USA). Following incubation of the mixture at 37°C for 2 h, fluorescence was measured with excitation/emission wavelengths at 400/505 nm (FLx800 fluorescence microplate reader). In addition, the collected cells were lysed by sonication. Acetylcholinesterase (AChE) activity in the supernatant was determined in 10 μg aliquots of cell extracts using the AChE activity assay kit (Sigma-Aldrich) according to the manufacture's protocol. Finally, the absorbance at 412 nm was measured using a Multiskan GO spectrophotometer (Thermo Fisher Scientific).

[4] = test system: Aβ-GFP SH-SY5Y cells; assay: Western blot in Aβ-GFP SH-SY5Y cells; assay type: cell-based, Human; settings: LM-021 5 μM, immunoblot
Procedure: To monitor the cAMP-mediated signal transduction pathway, CRE-GFP 293 cells in 6-well plates (1 × 10^6/well) were pretreated with kinase inhibitor H-89 (LC Laboratories, Woburn, MA, USA), KN-62 (Cayman Chemical, Ann Arbor, MI, USA), U0126 (LC Laboratories), or wortmannin (LC Laboratories) (10 μM) for 4 h before forskolin or LM-021 (10 μM) addition for 5 h. GFP fluorescence/protein and total/phosphorylated PKA, CaMKII, ERK, PI3K, and CREB levels were examined. In addition, Aβ-GFP or ∆K280 tauRD-DsRed SH-SY5Y cells were treated with retinoic acid (10 μM) on day 1, followed by the addition of LM-021 (5 or 10 μM) and doxycycline (5 or 2 μg/ml) on day 2, as described. Kinase inhibitors (10 μM) were added on day 6. On day 8, the cells were collected for protein expression analysis of BDNF, BCL2 (BCL2 apoptosis regulator), and BAX (BCL2 associated X, apoptosis regulator), and total/phosphorylated PKA, CaMKII, ERK, PI3K, and CREB. Also, cells were stained with DAPI and assessed for neurite outgrowth as described above.
Total proteins from CRE-GFP 293 and Aβ-GFP, ∆K280 tauRD-DsRed SH-SY5Y cells were extracted using lysis buffer (50 mM Tris-HCl (pH 8.0), 150 mM NaCl, 1 mM EDTA (pH 8.0), 1 mM EGTA (pH 8.0), 0.1% SDS, 0.5% sodium deoxycholate, 1% Triton X-100) containing phosphatase and protease inhibitor cocktails (Sigma-Aldrich). Protein concentrations were measured using a protein assay kit (Bio-Rad, Hercules, CA, USA), and 20 μg of proteins was separated with 10% SDS-PAGE and blotted onto polyvinylidene difluoride (PVDF) membranes (Sigma-Aldrich). After blocking, the membrane blot was incubated with primary antibody against GFP (1 : 500; Santa Cruz Biotechnology, Santa Cruz, CA, USA), PKA (1 : 1000; R&D Systems, Minneapolis, MN, USA), p-PKA (T197) (1 : 1000; Cell Signaling, Danvers, MA, USA), ERK (1 : 500; Cell Signaling), p-ERK (T202/Y204) (1 : 500; Cell Signaling), CaMKII (1 : 1000; Santa Cruz Biotechnology), p-CaMKII (T286) (1 : 1000; Cell Signaling), CREB (1 : 1000; Santa Cruz Biotechnology), p-CREB (S133) (1 : 1000; Millipore, Billerica, MA, USA), BDNF (1 : 500; Santa Cruz Biotechnology), BCL2 (1 : 500; BioVision), BAX (1 : 500; BioVision), GAPDH (glyceraldehyde-3-phosphate dehydrogenase, as a loading control) (1 : 1000; MDBio, Taipei, Taiwan), or β-tubulin (1 : 1000, Sigma-Aldrich, as a loading control). The immune complexes were visualized using horseradish peroxidase-conjugated goat anti-mouse or goat anti-rabbit IgG antibody (1 : 5000, GeneTex, Irvine, CA, USA) and a chemiluminescent substrate (Millipore).

[5] = physchem; assay type: physicochemical; settings: aqueous buffer
Procedure: The coumarin-chalcone derivatives (E)-4-hydroxy-3-(3-(p-tolyl)acryloyl)-2H-chromen-2-one (LM-016), (E)-3-(3-(4-(dimethylamino)phenyl)acryloyl)-4-hydroxy-2H-chromen-2-one (LM-021), and (E)-3-(3-(furan-2-yl)acryloyl)-4-hydroxy-2H-chromen-2-one (LM-022) were synthesized in our laboratory as previously described and examined by using NMR spectroscopy. The LM-016, LM-021, and LM-022 stayed soluble in cell culture medium at concentrations up to 100 μM.

T1 sequence (P05067 672-713 limits assumed): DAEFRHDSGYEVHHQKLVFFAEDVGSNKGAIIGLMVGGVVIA
T2 sequence (P10636 with tags, fused parts or gaps DEL597-597): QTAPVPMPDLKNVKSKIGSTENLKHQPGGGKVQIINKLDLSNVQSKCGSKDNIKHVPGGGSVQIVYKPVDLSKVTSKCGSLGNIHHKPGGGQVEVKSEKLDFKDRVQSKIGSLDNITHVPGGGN

With `CN(C)c1ccc(/C=C/C(=O)c2c(O)c3ccccc3oc2=O)cc1` [LM-021, (E)-3-(3-(4-(dimethylamino)phenyl)acryloyl)-4-hydroxy-2H-chromen-2-one] the EC50 [1] was 14 µM, the EC50 [2] was 10 µM and the AChE activity [3] was “reduced”. The BAX protein levels [4] was “reduced”, the “PKA and ERK protein levels” value [4] was “rescued the reduction in PKA and ERK, although not significantly” and the “p-CREB, CREB, pro-BDNF, m-BDNF, and BCL2 protein levels” value [4] was “significantly increased”. For the same compound, the “p-PKA, p-CaMKII, and p-ERK protein levels” value [4] was “significantly upregulated” and the solubility [5] was ≥ 100 µM.
